From US12357698B1, “FUS proteolysis-targeting chimera, preparation method and applications thereof” (SHANDONG NORMAL UNIVERSITY, priority 2024, dated 2025)
Substitutions are numbered along the chain they refer to.

What was measured:
Format in all cases: cell-based
[1] = biological target: T1, FUS-R521H (Homo sapiens, UniProt P35637, R521H); test: Degradation of mutant FUS-R521H in 293T cells, Western blot; conditions: 1000 nM, 24 hours
T1 construct: expressed in transfected cells; host or cells: 293T cells
T1 sequence (P35637 1-526 R521H): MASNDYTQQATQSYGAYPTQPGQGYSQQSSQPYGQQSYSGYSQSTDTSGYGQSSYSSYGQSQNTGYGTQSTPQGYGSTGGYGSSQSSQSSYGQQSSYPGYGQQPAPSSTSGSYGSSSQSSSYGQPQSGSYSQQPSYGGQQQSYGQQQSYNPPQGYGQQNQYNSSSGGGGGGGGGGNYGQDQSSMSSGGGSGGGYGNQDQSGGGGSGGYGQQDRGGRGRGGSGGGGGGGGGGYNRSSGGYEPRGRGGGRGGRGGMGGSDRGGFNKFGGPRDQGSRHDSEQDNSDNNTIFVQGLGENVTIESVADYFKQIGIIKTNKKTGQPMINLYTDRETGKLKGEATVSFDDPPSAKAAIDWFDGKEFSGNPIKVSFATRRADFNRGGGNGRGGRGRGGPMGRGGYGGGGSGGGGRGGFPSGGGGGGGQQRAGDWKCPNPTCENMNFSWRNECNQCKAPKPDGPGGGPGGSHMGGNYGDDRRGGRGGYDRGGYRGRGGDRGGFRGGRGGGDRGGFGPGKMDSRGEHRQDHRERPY
Method: (§1) dFUS-C1 solutions were prepared at concentration gradients of 37.5 nM, 62.5 nM, 125 nM, 250 nM, 500 nM, 1000 nM, and 2000 nM, and were transfected into 293T cells expressing different mutant FUS proteins using liposomes. After 24 hours, the cells were lysed, and changes in FUS protein were detected by Western blot. FIG. 11A to FIG. 11E show the degradation of different mutant FUS by dFUS-C1 in 293T cells.

[2] = biological target: T2, FUS protein (Rattus norvegicus, UniProt Q5PQK2); test: FUS degradation in PC12 cells, Western blot; conditions: liposome transfection, 24 hours
T2 construct: endogenous in cells; host or cells: PC12 cells
T2 sequence (Q5PQK2 1-515): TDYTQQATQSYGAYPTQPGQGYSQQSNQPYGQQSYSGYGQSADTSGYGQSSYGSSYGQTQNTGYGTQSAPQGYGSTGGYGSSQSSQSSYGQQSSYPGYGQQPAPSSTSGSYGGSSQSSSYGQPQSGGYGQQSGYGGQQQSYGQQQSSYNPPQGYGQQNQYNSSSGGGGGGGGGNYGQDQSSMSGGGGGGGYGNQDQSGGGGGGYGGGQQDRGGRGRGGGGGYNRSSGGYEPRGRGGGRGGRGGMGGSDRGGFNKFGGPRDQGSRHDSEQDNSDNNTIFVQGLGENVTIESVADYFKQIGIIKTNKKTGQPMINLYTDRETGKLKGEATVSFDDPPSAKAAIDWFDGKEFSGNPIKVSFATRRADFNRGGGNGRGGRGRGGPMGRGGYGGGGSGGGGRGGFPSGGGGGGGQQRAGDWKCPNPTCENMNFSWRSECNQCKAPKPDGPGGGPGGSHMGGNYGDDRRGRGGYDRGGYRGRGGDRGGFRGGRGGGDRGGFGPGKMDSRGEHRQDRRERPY
Method: The 10 PROTACs were transfected into PC12 cells at a final concentration of 125 nM using liposomes. After 24 hours, the cells were lysed, and changes in FUS protein were detected by Western blot.
(§2) dFUS-C1 solutions were prepared at concentration gradients of 9.4 nM, 18.7 nM, 37.5 nM, 62.5 nM, and 125 nM, and were transfected into PC12 or SH-SY5Y cells using liposomes. After 24 hours, the cells were lysed, and changes in FUS protein were detected by Western blot.

[3] = biological target: T3, FUS protein (Homo sapiens, UniProt P35637); test: FUS degradation in SH-SY5Y cells, Western blot; conditions: concentration gradient 9.4-125 nM, liposome transfection, 24 hours
T3 construct: endogenous in cells; host or cells: SH-SY5Y cells
T3 sequence (P35637 1-526): T1 sequence (P35637 1-526 R521H) with H521R
Method: as §2
Then 15% non-denaturing polyacrylamide gel electrophoresis was performed at 120 V for about 70 min, followed by staining with SYBR Gold nucleic acid gel stain, and finally imaged using a Bio-RAD instrument. […] For testing the FUS protein degradation performance of dFUS-PS, dFUS-PS solutions were prepared at concentration gradients of 9.4 nM, 18.7 nM, 37.5 nM, 62.5 nM, and 125 nM, and were transfected into SH-SY5Y cells using liposomes. After 24 hours, the cells were lysed, and changes in FUS protein were detected by Western blot.

[4] = biological target: T4, FUS-P525L (Homo sapiens, UniProt P35637, P525L); test: Degradation of mutant FUS-P525L in 293T cells, Western blot; conditions: 1000 nM, 24 hours
T4 construct: expressed in transfected cells; host or cells: 293T cells
T4 sequence (P35637 1-526 P525L): T1 sequence (P35637 1-526 R521H) with H521R, P525L
Method: as §1

[5] = tested on: SH-SY5Y cells; test: Neurotoxicity caused by FUS overexpression (ROS, LDH release, CCK8); conditions: SH-SY5Y cells transfected with FUS plasmids, CCK8 cell viability
Method: In this example, ROS detection kit, LDH release detection kit, and CCK8 reagent were used for cytotoxicity detection. Specifically: 5×10^3 SH-SY5Y cells were added to 96-well plates and cultured at 37° C., 5% CO2 cell incubator for 12 hours; FUS plasmids were transfected into the wells, then the cells were cultured at 37° C., 5% CO2 cell incubator for 24 hours, indicated reagents were added to each well, and corresponding indicators were detected according to the kit instructions.

[6] = tested on: FUS protein; test: Proteomics before and after dFUS-C1 treatment
[7] = biological target: T5, FUS-R521C (Homo sapiens, UniProt P35637, R521C); test: Degradation of mutant FUS-R521C in 293T cells, Western blot; conditions: 1000 nM, 24 hours
T5 construct: expressed in transfected cells; host or cells: 293T cells
T5 sequence (P35637 1-526 R521C): T1 sequence (P35637 1-526 R521H) with H521C
Method: as §1

[8] = biological target: T6, FUS-WT (Homo sapiens, UniProt P35637); test: Degradation of FUS-WT in 293T cells, Western blot; conditions: 1000 nM, 24 hours
T6 construct: expressed in transfected cells; host or cells: 293T cells
T6 sequence (P35637 1-526): T1 sequence (P35637 1-526 R521H) with H521R

[9] = biological target: T7, FUS-R521G (Homo sapiens, UniProt P35637, R521G); test: Degradation of mutant FUS-R521G in 293T cells, Western blot; conditions: 1000 nM, 24 hours
T7 construct: expressed in transfected cells; host or cells: 293T cells
T7 sequence (P35637 1-526 R521G): T1 sequence (P35637 1-526 R521H) with H521G
Method: as §1

Substance: dFUS-C1: PROTAC obtained by coupling FUS-1 (N3-FUS-RNA #1, SEQ ID NO: 1) with CRBN ligand (GUUUGGUGAUGUUUGGUGAU; RNA, backbone not given here; 5' azide via C6 amino linker, click-coupled to CRBN ligand (PROTAC))
- degradation of FUS-R521H [1]: could efficiently degrade
- degradation of FUS protein ([2]; 125 nM): stably and efficiently degrade FUS protein
- degradation of FUS protein ([2]; concentration gradient 9.4-125 nM): could efficiently degrade FUS protein
- degradation of FUS protein [3]: could efficiently degrade FUS protein
- degradation of FUS-P525L [4]: could efficiently degrade
- neurotoxicity caused by FUS overexpression [5]: significantly inhibited the neurotoxicity caused by FUS overexpression
- specificity of degradation (proteomics) [6]: specific degradation effects on FUS protein
- degradation of FUS-R521C [7]: could efficiently degrade
- degradation of FUS-WT [8]: could efficiently degrade
- degradation of FUS-R521G [9]: could efficiently degrade
